Data: article PMC6801819, “Exogenous Iron Increases Fasciocidal Activity and Hepatocellular Toxicity of the Synthetic Endoperoxides OZ78 and MT04” (International Journal of Molecular Sciences, 2019)
Where two headings read alike, the source gives them in different places.

Assays:
mice = conditions: cited from earlier work
adult F. hepatica = assay: In vitro/ex vivo adult worm viability assay; type: cell-based, Fasciola hepatica; conditions: for viability of adult F. hepatica (viability score): score 4 normal activity to 1 death; for viability of adult F. hepatica: 48 h
Protocol: The experiments were performed, as described previously. Adult F. hepatica were collected from bovine liver bile ducts obtained from the local slaughterhouse (Basel, Switzerland). After careful washing, a single adult worm was placed per well (6-well plate, Costar, MA, USA) containing 5.4 mL RPMI 1640 (Gibco, N.Y., USA), supplemented with 1% (v/v) antibiotics (50 µg/mL streptomycin and 50 U/mL penicillin), 1% (v/v) drug solution, […] Control worms were incubated in 1% (v/v) DMSO combined with iron or hemin. Experiments were conducted in triplicates and repeated once. Cultures were kept at 37 °C in an atmosphere of 5% CO2. The viabilities of treated and untreated worms were monitored at 0, 24, 48, and 72 h. Worms were examined by eye and/or using a dissecting microscope (20× lenses). The viability of adult flukes was scored using the following scale: 4: normal activity; movements were visible without a microscope, 3: reduced activities, 2: very weak activities detected only using microscopic magnification, and 1: death of worm (no movement observed for two min using a microscope).

[1] = system: complex IV of the mitochondrial electron transport chain; assay: High-resolution respirometry, TMPD/ascorbate + antimycin A (complex IV); type: cell-based, human; conditions: AS 100 µM, OZ78 500 µM, MT04 500 µM, 24 h, permeabilized HepG2
Protocol: (§1) After incubation with different drugs for 24 h, HepG2 cells were trypsinized and resuspended in DMEM with 10% fetal calf serum (FCS) and then centrifuged for 5 min (180× g). Cells were resuspended in MiRo5 respiration buffer (110 mM sucrose, 0.5 mM ethylene glycol-bis(β-aminoethyl ether)-N,N,N′,N′-tetraacetic acid (EGTA), 3.0 mM MgCl2, 80 mM KCl, 60 mM K-lactobionate, 10 mM KH2PO4, 20 mM taurine, 20 mM Hepes, 1.0 g/L BSA, pH 7.1). Respiration rates were measured at 37 °C using a high-resolution oxygraph (Oxygraph-2k, Oroboros Instruments, Innsbruck, Austria). Respiration rates were calculated as the time derivative of oxygen concentration measured in the closed respirometer. The amplified signal was recorded in a computer with an online display of the calibrated oxygen concentration and oxygen flux (DatLab software for data acquisition and analysis; Oroboros Instruments). The mitochondrial complex activity was assessed by a standard titration protocol: first cells were permeabilized with digitonin (10 µg/1 million cells) for 5 min. Afterward, for complex I-dependent maximal respiration stimulation, substrates added were glutamate (10 mM) and malate (5 mM), which provide nicotinamide adenine dinucleotide (NADH) to the respiratory chain (complex I activation), followed by addition of ADP (2.5 mM) (state 3, maximal respiration). After a stable signal was reached and marked, rotenone (0.5 µM) was added to inhibit complex I, and then complex II-dependent respiration was stimulated by adding succinate (10 mM), which provides flavin adenine dinucleotide (FADH) to the respiratory chain (complex II activation, state 3). Afterward, complex III was inhibited by antimycin A (2.5 µM), and complex IV-dependent respiration was measured by adding ascorbate (2 mM) and N,N,N′,N′-tetramethyl-p-phenylendiamine (TMPD, 0.5 mM). We confirmed the integrity of the outer mitochondrial membrane by showing the absence of a stimulatory effect of exogenous cytochrome c (10 µM) on respiration. Respiration was expressed as oxygen consumption per 5 × 10^5 cells.

F. hepatica [2] = conditions: rats infected with F. hepatica, single oral dose AS 200 mg/kg, OZ78 100 mg/kg, MT04 50 mg/kg; cited from earlier work
[3] = system: complex II of the mitochondrial electron transport chain; assay: High-resolution respirometry, succinate + rotenone (complex II); type: cell-based, human; conditions: AS 100 µM, OZ78 500 µM, MT04 500 µM, 24 h, permeabilized HepG2, vs control
Protocol: as §1

HepG2 cells [4] = assay: Cellular ATP content (CellTiter-Glo); type: cell-based, human; conditions: 24 h, HepG2
Protocol: Stock solutions of the drugs tested were prepared in DMSO 100% (v/v).
In viability assays, HepG2 cells were treated with 0.1% Triton-X or 0.1% DMSO for positive or negative control, respectively.
To assess cellular ATP content, HepG2 cells were seeded in white-wall 96-well plates with a clear bottom (Nunc). One day after seeding, cells were treated with the respective drugs. […] Luminescence was measured using Tecan M200 Infinite Pro.

HepG2 cells [5] = assay: Cellular reactive oxygen species (DCF-DA); type: cell-based, human; conditions: 24 h, HepG2; for cellular ROS content: drug + Fe2+; for increase of cellular ROS content, factor: drug alone (100 or 500 µM), no exogenous iron
Protocol: Stock solutions of the drugs tested were prepared in DMSO 100% (v/v). […] LC-MS measurements confirmed the stability of the compounds (data not shown). Treatments with AS, MT04, or OZ78 (100 or 500 µM) were performed either alone or in combination with 8% (v/v) hemin or FeCl2 solution for 24 h. The final iron concentration used was 122 µM (stock 1.5 mM) based on previous in vitro studies with F. hepatica. Dichlorodihydrofluorescein diacetate (DCF-DA) dissolved in DMSO was used to assess cellular formation of reactive oxygen species (ROS). HepG2 cells were seeded in a black-wall 96 well plate with a clear bottom as described above. Briefly, 30 min before treatment started, DCF-DA was added to the cells at a final concentration of 25 µM. DCF-DA was removed completely before the drugs were added. ROS was measured after 90 min and 24 h of drug exposure using a Tecan M200 Infinite Pro (excitation 485 nm, emission 535 nm).

F. hepatica [6] = conditions: sheep naturally infected with F. hepatica; cited from earlier work
[7] = Drug solutions in cell culture medium; type: physicochemical; conditions: from DMSO stock
Protocol: Stock solutions of the drugs tested were prepared in DMSO 100% (v/v). […] LC-MS measurements confirmed the stability of the compounds (data not shown). Treatments with AS, MT04, or OZ78 (100 or 500 µM) were performed either alone or in combination with 8% (v/v) hemin or FeCl2 solution for 24 h. The final iron concentration used was 122 µM (stock 1.5 mM) based on previous in vitro studies with F. hepatica.

F. hepatica [8] = system: F. hepatica; design: method as in PMID 21316331; conditions: 50 µg/mL; cited from earlier work
[9] = design: method as in PMID 15318224; conditions: cited from earlier work
[10] = 50 µg/mL drug + Fe2+ (iron), 72 h
[11] = 50 µg/mL drug + Fe2+ (iron), 24 h

Row | Structure (SMILES) | viability of adult F. hepatica (viability score) (adult F. hepatica; [10]) | viability of adult F. hepatica (viability score) (adult F. hepatica; 50 µg/mL drug + hemin, 72 h) | viability of adult F. hepatica (viability score) (adult F. hepatica; 50 µg/mL drug alone, 72 h) | decrease of maximal ADP-stimulated respiration rate, TMPD/ascorbate + antimycin A (complex IV) [1] | killing of juvenile and adult liver flukes in vivo (F. hepatica [2]) | inhibition of mitochondrial respiration, succinate + rotenone (complex II) [3] | decrease in cellular ATP content as compared to DMSO (HepG2 cells [4]; 100 µM + Fe2+ (iron)) | decrease in cellular ATP content as compared to DMSO (HepG2 cells [4]; 100 µM + hemin) [%] | decrease in cellular ATP content as compared to DMSO (HepG2 cells [4]; 100 µM alone) | decrease in cellular ATP content as compared to DMSO (HepG2 cells [4]; 500 µM + Fe2+ (iron)) | decrease in cellular ATP content as compared to DMSO (HepG2 cells [4]; 500 µM + hemin) | decrease in cellular ATP content as compared to DMSO (HepG2 cells [4]; 500 µM alone) | cellular ROS content (HepG2 cells [5]) | increase of cellular ROS content, factor (HepG2 cells [5]) | viability of adult F. hepatica (viability score) (adult F. hepatica; [11]) | viability of adult F. hepatica (viability score) (adult F. hepatica; 50 µg/mL drug + hemin, 24 h) | viability of adult F. hepatica (viability score) (adult F. hepatica; 50 µg/mL drug alone, 24 h) | behaviour of drug solutions in medium [7] | activity against the liver fluke F. hepatica (F. hepatica [8]) | other results
1 | C[C@H]1[C@H](OC(=O)CCC(=O)O)O[C@@H]2O[C@@]3(C)CC[C@H]4[C@H](C)CC[C@@H]1[C@@]24OO3 [AS, artesunate, reference compound] | death of the worms | death of the worms | death of the worms | 47% | efficiently killed juvenile and adult liver flukes | 83% | 93% | 95 | 55% | complete depletion in cellular ATP | complete depletion in cellular ATP | complete depletion in cellular ATP | increased the cellular ROS content | 5 | – | – | – | – | – | LD50 (mice; single intramuscular administration): 475 mg/kg; LD50 (mice; single intravenous administration): 520 mg/kg
2 | O=C(O)CC1CCC2(CC1)OOC1(OO2)C2CC3CC(C2)CC1C3 (centres unmarked) [MT04] | 1.6 | death of the worms | 1.6 | 22% | efficiently killed juvenile and adult liver flukes | 61% | 20% | 40 | not toxic | 65% | 65% | 20% | not | – | 2.2 | 2.5 | not affected | tend to precipitate | have activity | egg count reduction (F. hepatica [6]): 98.5%; worm burden reduction (F. hepatica [6]): 92%
3 | O=C(O)C[C@H]1CC[C@]2(CC1)OOC1(O2)C2CC3CC(C2)CC1C3 (some centres unmarked) [OZ78] | 2 | 2 | 2 | only numerically, but without reaching statistical significance | efficiently killed juvenile and adult liver flukes | only numerically, but without reaching statistical significance | not toxic | 12 | not toxic | not enhanced by the addition of iron or hemin | not enhanced by the addition of iron or hemin | 14% | increased the cellular ROS content | 5 | 3 | 3 | no effect on worm vitality | tend to precipitate | have activity | effect in sheep (F. hepatica [6]): no effect; viability of adult F. hepatica (adult F. hepatica; 50 µg/mL drug + Fe2+ (iron)): more efficient in impairing worm viability than OZ78 alone; viability of adult F. hepatica (adult F. hepatica; 50 µg/mL drug + hemin): more efficient in impairing worm viability than OZ78 alone; mutagenic potential [9]: no mutagenic potential
